Experimental data taken from patent US10406120B2, “Methods and compositions for treating kidney disorders” (Golden Biotechnology Corporation, priority 2013, dated 2019).

What was measured:
MCP-1 = experiment: AcP-IgAN model: renal MCP-1 mRNA and protein; assay type: in vivo, B cell-deficient mice; settings: AcP-IgAN mice
Procedure: (§1) B cell-deficient mice (B6.129S2-Igh-6tm1Cgn/J) were obtained from the Academia Sinica (Professor John T. Kung, Institute of Molecular Biology), and maintained at the animal center of the National Defense Medical Center, Taipei, Taiwan. AcP-IgAN was induced in the mice by daily injection of purified IgA anti-phosphorylcholine antibodies and pneumococcal C-polysaccharide (PnC) as described previously (Chao, et al., Kidney Int. 70:283-297; 2006). All animal experiments were performed with the approval of the Institutional Animal Care and Use Committee of The National Defense Medical Center, Taiwan, and were consistent with the NIH Guide for the Care and Use of Laboratory Animals.
(§2) For IHC, formalin fixed and paraffin embedded tissue sections or frozen sections were incubated with against IL-6 (R&D Systems, MN), MCP-1 (Santa Cruz, Calif.), F4/80 (monocytes/macrophages; Serotec, N.C.), collagen IV (Southern Biotech, AL), TGF-β1 (Santa Cruz), phopsho-NFκB p65 (Cell Signaling, MA), CD3 (pan-T cell; Serotec), CD4 (T helper cell; BioLegend, CA), CD8 (cytotoxic T cell), CD11b (macrophages/neutrophils), or CD11c (dendritic cells) (BD Biosciences, CA) antibodies. The FITC-conjugated, Alexa Fluor 488-conjugated (Invitrogen, CA) or horseradish peroxidase (HRP) conjugated secondary antibodies (DAKO, Denmark) were then applied to the sections. Hematoxylin or 4′,6-diamidino-2-phenylindole (DAKO) was used in the counter staining for nuclei.
Total cortical kidney RNA was extracted with TriZOL reagents (Invitrogen) from cortical tissue of the kidney. For first-strand cDNA synthesis, 1.5 μg of total RNA was used in a single-round reverse transcriptase reaction. The reaction mixture consisted of 0.9 μl of Oligo (dT) 12 to 18 primer, 1.0 mM deoxyribonucleotide triphosphate (dNTP), 1 μl first strand buffer, 0.4 mM dithiothreitol, 80 U of RNaseout recombinant ribonuclease inhibitor, and 300 U of superscript II RNase H (Invitrogen). Real-time PCR was performed on an ABI Prism 7700 Sequence Detection System (Applied Biosystems, CA). […]

IL-1β = experiment: AcP-IgAN model: serum IL-1β ELISA; assay type: in vivo, B cell-deficient mice; settings: AcP-IgAN mice, day 28, vs control AcP-IgAN mice (FIG. 15C)
Procedure: as §1
Serum levels of IL-1β (eBiosceience, CA), IL-6 (eBiosceience), IL-18 (MBL, Japan), and MCP-1 (eBiosceience) were measured using commercial ELISA kits according to the manufacturer's instructions.

IL-6 = experiment: FSGS model: renal IL-6 (IHC); assay type: in vivo, BALB/c mice; settings: FSGS mice, vs control FSGS mice
Procedure: Experiments described herein were performed on 8-week-old female BALB/c mice. The FSGS mice were injected intravenously with a single dose of adriamycin (0.1 mg/10 g body weight). The mice were given Compound 1 six hours before adriamycin injection by gavage daily till sacrifice. BALB/c mice intraperitoneal injected with normal saline were used as normal controls, while ASLN mice given vehicle (corn oil) by gavage were used as disease controls. Mice were killed at day 7, 14, or 21 after disease induction, and spleen, renal cortical tissue, and blood samples collected and stored appropriately until analysis. […]
(§3) For IHC, formalin-fixed and paraffin-embedded renal sections were prepared and incubated with primary antibodies against mouse Desmin (Lab Vision, CA, USA), CD3 (pan-T cell; Serotec, N.C., USA), F4/80 (monocytes/macrophages; Serotec), IL-6 (R&D Systems, MN, USA), NF-κB p65 (Cell Signaling Technology, MA, USA), collagen I, III, and IV (Southern Biotech, AL, USA), or TGF-β1 (Santa Cruz Biotechnology, CA, USA), biotinylated second antibodies (Dako, Glostrup, Denmark), and avidin-biotin-peroxidase complex (Dako). Semi-quantitative evaluation of staining was performed.

collagen I, III, and IV = experiment: FSGS model: renal collagen accumulation (IHC); assay type: in vivo, BALB/c mice; settings: FSGS mice
Procedure: Experiments described herein were performed on 8-week-old female BALB/c mice. The FSGS mice were injected intravenously with a single dose of adriamycin (0.1 mg/10 g body weight). The mice were given Compound 1 six hours before adriamycin injection by gavage daily till sacrifice. BALB/c mice intraperitoneal injected with normal saline were used as normal controls, while ASLN mice given vehicle (corn oil) by gavage were used as disease controls. Mice were killed at day 7, 14, or 21 after disease induction, and spleen, renal cortical tissue, and blood samples collected and stored appropriately until analysis. All animal experiments were performed with the ethical approval of the Institutional Animal Care and Use Committee of The National Defense Medical Center, Taiwan and performed according to the ethical rules in the NIH Guide for the Care and Use of Laboratory Animals.
as §3

mononuclear leukocytes = experiment: AcP-IgAN model: leukocyte infiltration in the kidney (IF/IHC); assay type: in vivo, B cell-deficient mice; settings: AcP-IgAN mice
Procedure: as §1
as §2, with “Hematoxylin or 4′,6-diamidino-2-phenylindole (DAKO) was used in the counter staining for nuclei.” left out

[1] = day 28, vs control AcP-IgAN mice
[2] = day 14 to day 21, vs control FSGS mice

COC1=C(OC)[C@H](O)[C@H](C/C=C(\C)CC/C=C(\C)CCC=C(C)C)[C@@H](C)C1=O [Compound 1, Antroquinonol]
renal expression levels of mRNA and protein of MCP-1 (MCP-1; day 3): no such effect | renal expression levels of mRNA of MCP-1 (MCP-1; [1]): significantly reduced | renal expression levels of protein of MCP-1 (MCP-1; [1]): significantly reduced | serum levels of IL-1β (increase) (IL-1β): greatly inhibited | renal protein expression levels of IL-6 (IHC) (IL-6): significantly reduced | renal expression of collagen I (IHC) (collagen I, III, and IV; [2]): significant suppression | renal expression of collagen IV (IHC) (collagen I, III, and IV; [2]): significant suppression | renal expression of collagen III (IHC) (collagen I, III, and IV; day 21, vs control FSGS mice): significant suppression | infiltration of pan-T cells, neutrophils and monocytes/macrophages in the kidney (mononuclear leukocytes; day 3): no detectable signals | infiltration of inflammatory cells (CD3^+, CD4^+, CD8^+, CD11c+, F4/80+, CD11b+) in the kidney (mononuclear leukocytes; day 28, vs AcP-IgAN mice): significantly decreased infiltration
